± gives the standard deviation of the averaged measurements.
Key:
EVEROLIMUS = compound: CO[C@H]1C[C@@H]2CC[C@@H](C)[C@@](O)(O2)C(=O)C(=O)N2CCCC[C@H]2C(=O)O[C@H]([C@H](C)C[C@@H]2CC[C@@H](OCCO)[C@H](OC)C2)CC(=O)[C@H](C)/C=C(\C)[C@@H](O)[C@@H](OC)C(=O)[C@H](C)C[C@H](C)/C=C/C=C/C=C/1C [EVEROLIMUS]; experiment: surviving fraction relative to DMSO-only wells; higher = less growth inhibition; conditions: exposure time: 5 days
How it was run: (§1)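 Tumour cell lines were seeded in log phase at 250–500 cells per well into 384-well plates. Starting 24 hours later, inhibitors were present continuously for five days at 0.5, 1, 5, 10, 50, 100, 500 and 1000 nM. Surviving fraction, from CellTiter-Glo luminescence, is normalised to the median of DMSO-only wells. Three screens per line were required, with replicate Pearson r >0.7 and median Z' >0.3 for a line to be kept.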

MK0752 = compound: O=C(O)CC[C@H]1CC[C@@](c2cc(F)ccc2F)(S(=O)(=O)c2ccc(Cl)cc2)CC1 [MK0752]; experiment: as above; conditions: exposure time: 5 days
How it was run: as §1

Test System	surviving fraction (EVEROLIMUS; 0.5 nM)	surviving fraction (EVEROLIMUS; 1 nM)	surviving fraction (EVEROLIMUS; 5 nM)	surviving fraction (EVEROLIMUS; 10 nM)	surviving fraction (EVEROLIMUS; 50 nM)	surviving fraction (EVEROLIMUS; 100 nM)	surviving fraction (EVEROLIMUS; 500 nM)	surviving fraction (EVEROLIMUS; 1000 nM)	surviving fraction (MK0752; 0.5 nM)	surviving fraction (MK0752; 1 nM)	surviving fraction (MK0752; 5 nM)	surviving fraction (MK0752; 10 nM)	surviving fraction (MK0752; 50 nM)	surviving fraction (MK0752; 100 nM)	surviving fraction (MK0752; 500 nM)	surviving fraction (MK0752; 1000 nM)
SNU475 LIVER	0.489 ± 0.032	0.447 ± 0.028	0.41 ± 0.042	0.364 ± 0.018	0.381 ± 0.028	0.35 ± 0.01	0.303 ± 0.0065	0.343 ± 0.017	1.06 ± 0.028	1 ± 0.036	0.97 ± 0.052	1.02 ± 0.011	1.01 ± 0.019	1.03 ± 0.036	1.03 ± 0.037	0.965 ± 0.036
SUM44 BREAST	0.853 ± 0.24	0.723 ± 0.16	0.718 ± 0.12	0.713 ± 0.12	0.819 ± 0.25	0.804 ± 0.16	0.723 ± 0.17	0.711 ± 0.11	0.998 ± 0.06	0.992 ± 0.035	0.983 ± 0.033	1.015 ± 0.0072	1.04 ± 0.051	1.09 ± 0.025	1.02 ± 0.031	1.05 ± 0.03
SUM149 BREAST	0.844 ± 0.035	0.671 ± 0.098	0.536 ± 0.068	0.523 ± 0.079	0.462 ± 0.039	0.411 ± 0.04	0.403 ± 0.023	0.335 ± 0.03	0.927 ± 0.072	0.995 ± 0.09	1.03 ± 0.062	1.05 ± 0.03	1.01 ± 0.08	0.98 ± 0.15	0.884 ± 0.014	0.935 ± 0.068
SUM149.B1*.S BREAST	1.11 ± 0.032	1.06 ± 0.034	1.04 ± 0.039	0.754 ± 0.082	0.696 ± 0.16	0.681 ± 0.17	0.698 ± 0.13	0.653 ± 0.13	1.11 ± 0.05	1.12 ± 0.044	1.1 ± 0.041	1.117 ± 0.004	1.18 ± 0.046	1.2 ± 0.029	1.03 ± 0.045	1.06 ± 0.068
SUM159 BREAST	1.08 ± 0.023	1.09 ± 0.024	0.921 ± 0.047	0.851 ± 0.04	0.852 ± 0.06	0.807 ± 0.014	0.808 ± 0.022	0.784 ± 0.021	1.16 ± 0.12	1.15 ± 0.098	1.13 ± 0.075	1.13 ± 0.085	1.06 ± 0.044	1.11 ± 0.022	1.13 ± 0.057	1.11 ± 0.035
SYO1 SYNOVIAL	0.8921 ± 0.0089	0.834 ± 0.011	0.661 ± 0.016	0.602 ± 0.036	0.508 ± 0.011	0.508 ± 0.0081	0.484 ± 0.036	0.45 ± 0.022	1 ± 0.024	0.981 ± 0.029	0.9374 ± 0.0056	1 ± 0.042	1.04 ± 0.082	1.01 ± 0.02	0.98 ± 0.052	0.971 ± 0.018
T47D BREAST	0.892 ± 0.044	0.815 ± 0.047	0.686 ± 0.041	0.637 ± 0.021	0.646 ± 0.021	0.664 ± 0.038	0.6 ± 0.018	0.603 ± 0.022	1.07 ± 0.025	1.07 ± 0.011	1.04 ± 0.022	1.1 ± 0.015	1.11 ± 0.071	1.14 ± 0.018	1.09 ± 0.044	1.11 ± 0.02
U2OS BONE	0.954 ± 0.025	0.88 ± 0.039	0.7943 ± 0.0025	0.706 ± 0.039	0.678 ± 0.011	0.651 ± 0.029	0.633 ± 0.012	0.568 ± 0.03	1.05 ± 0.06	1.06 ± 0.015	1.08 ± 0.019	1.08 ± 0.034	1.1 ± 0.075	1.18 ± 0.031	1.02 ± 0.041	1.04 ± 0.058
VCAP PROSTATE	1.04 ± 0.079	1.04 ± 0.052	0.941 ± 0.1	0.984 ± 0.032	0.891 ± 0.15	0.898 ± 0.027	0.758 ± 0.078	0.766 ± 0.056	1.04 ± 0.051	1.15 ± 0.15	1.11 ± 0.14	1.19 ± 0.13	1.12 ± 0.065	1.22 ± 0.12	1.14 ± 0.076	1.12 ± 0.15
VP229 BREAST	0.812 ± 0.056	0.664 ± 0.048	0.645 ± 0.086	0.566 ± 0.051	0.584 ± 0.01	0.541 ± 0.058	0.507 ± 0.061	0.511 ± 0.045	1.39 ± 0.087	1.15 ± 0.2	1.13 ± 0.092	1.17 ± 0.07	1.1 ± 0.2	1.05 ± 0.14	1.01 ± 0.14	0.901 ± 0.084
YAMATO SYNOVIAL	1.07 ± 0.084	1.06 ± 0.074	1.06 ± 0.02	0.633 ± 0.022	0.5 ± 0.021	0.454 ± 0.0076	0.401 ± 0.014	0.473 ± 0.03	1.34 ± 0.1	1.39 ± 0.13	1.51 ± 0.082	1.39 ± 0.058	1.49 ± 0.12	1.46 ± 0.11	1.49 ± 0.063	1.41 ± 0.1
ZR751 BREAST	0.964 ± 0.017	0.715 ± 0.031	0.502 ± 0.054	0.5 ± 0.068	0.337 ± 0.014	0.353 ± 0.015	0.322 ± 0.038	0.339 ± 0.0066	1.21 ± 0.034	1.15 ± 0.031	1.13 ± 0.13	1.06 ± 0.089	1.09 ± 0.041	1.17 ± 0.083	1.14 ± 0.15	1.25 ± 0.24

From the supplement of paper PMC6045584
